From patent US12201696B2, “Multiplexed analysis of materials for tissue delivery” (Georgia Tech Research Corporation, priority 2017, dated 2025)

Tested on: HEK293 cells stably transduced with a CMV-lox-GFP-stop-lox-RFP construct
Assay: Endocytosis inhibition in LGSL-RFP HEK cells
Assay type: cell-based
Conditions: for effect on in vitro endocytosis and functional Cre mRNA delivery of ATL1 and ATL2: LGSL-RFP cells
Procedure: For experiments shown in FIG. 1, cells were incubated with endocytosis inhibitors 1 hour prior to incubation with pooled LNPs against clathrin-mediated endocytosis (chlorpromazine, 100 μM, Alfa Aesar), caveolae-mediated endocytosis (genistein, 100 μM, TCI America), and macropinocytosis (5-(N-Ethyl-N-isopropyl) Amiloride, EIPA, 50 μM, Toronto Research Chemicals).
To determine whether FIND could simultaneously measure delivery mediated by many nanoparticles, 54 chemically distinct LNPs were formulated (Table 5, FIGS. 4J-4O); each carried Cre mRNA and a unique DNA barcode. The LNPs were administered to HEK cells in a 6 well plate using an mRNA dose of 10, 100, or 1000 ng/well, and a mRNA: DNA barcode mass ratio of 10:1. A dose-dependent increase in RFP^+ cells was observed, with over 80% of the cells RFP^+ at 1000 ng 72 hours after transfection (FIG. 1G). Barcodes were deep sequenced at all 3 doses, reasoning that LNPs which delivered barcodes at the lowest dose (4% RFP^+ cells) would also deliver LNPs at the middle dose (20% RFP^+ cells). There was a strong relationship between normalized delivery at these 2 doses (FIG. 1H). Cells treated with 1000 ng mRNA were also sequenced. As expected, the relationship between 1000 ng and either 10 or 100 ng weakened, since at this dose, nearly all the cells (>80% were RFP^+), leading to system saturation (FIG. 4P-4Q). Finally, it was evaluated whether the number of RFP^+ cells decreased when cells were pre-treated with Chlorpromazine, Genistein, or Ethylisopropyl amiloride (EIPA), which inhibit clathrin-, caveolin-, and macropinocytosis-mediated endocytosis, respectively. Compared to cells that were not treated with inhibitors, the number of RFP^+ cells decreased by 40-60%, recapitulating previous LNP results (Sahay, Querbes et al. 2013, Dahlman, Barnes et al. 2014, Wittrup, Ai et al. 2015) (FIG. 1I).
Like all high throughput screens, LNPs identified by FIND need to be validated. ATL1 and ATL2 (FIG. 3A, 3B-3E) were selected. […] (FIG. 6C-6F).

Compound	effect on in vitro endocytosis and functional Cre mRNA delivery of ATL1 and ATL2	inhibition at 100 µM (Homo sapiens, HEK293, pre-treatment 1 hour before pooled 54 LNPs (100 ng total mRNA), chlorpromazine 100 μM, genistein 100 μM, EIPA 50 μM, read-out: decrease in number of RFP+ cells compared to cells not treated with inhibitors) [%]
O=c1c(-c2ccc(O)cc2)coc2cc(O)cc(O)c12 [Genistein, genistein]	inhibited	
CN(C)CCCN1c2ccccc2Sc2ccc(Cl)cc21 [Chlorpromazine, chlorpromazine]	inhibited	40 to 60
CCN(c1nc(N)c(C(=O)N=C(N)N)nc1Cl)C(C)C [EIPA, 5-(N-Ethyl-N-isopropyl) Amiloride]	only impacted LNP uptake	
